Experimental data as given in paper PMC9854410, “Targeted isolation of antitubercular cycloheptapeptides and an unusual pyrroloindoline-containing new analog, asperpyrroindotide A, using LC–MS/MS-based molecular networking” (Marine Life Science & Technology, 2023).
In brackets after ≈: the same amount, converted by molar mass. Marks after values point to notes of the source that are not given here. Starred links: 1 amine or outer side, 2 acyl side, 3 side chain; linkers in the order of their positions; H or OH if unused. Non-standard residues stand in square brackets, D forms with d. Residues, ends and D or L forms follow the SMILES beside them. X1 = O=C([C@H]1C[C@]2(O)c3ccccc3N[C@@H]2N1[*:1])[*:2]

Columns and labels:
Mycobacterium marinum = tested on: Mycobacterium marinum; design: method as in Hou et al. [2019b]; conditions: previous research; positive controls rifampin, streptomycin, isoniazid; ref Hou et al. [2019b]; cited from earlier work
[1] = tested on: Mycobacterium tuberculosis H37Ra (ATCC 25,177); test: microbe, parasite or virus in culture; type: cell-based; conditions: microplate Alamar Blue assay; for inhibitory activity against M. tuberculosis H37Ra at a single concentration: at a concentration of 100 μg/mL
Procedure: Anti-mycobacterial activity was determined against Mycobacterium tuberculosis H37Ra (ATCC 25,177) in a microplate Alamar Blue assay system (Collins et al. [1997]). The anti-tubercular drug rifampin was used as a positive control.

[2] = tested on: Mycobacterium tuberculosis H37Ra (ATCC 25,177); conditions: reported data; ref Hou et al. 2019; cited from earlier work
Text: Supplement 42995_2022_157_MOESM1_ESM.docx, table 2: Table S2. Antitubercular activity of compounds 1, 8−19 and previously reported 2, 20−23 against Mycobacterium tuberculosis H37Ra | column: MICs (μmol/L)

Molecule | minimum inhibitory concentrations (MICs) against Mycobacterium marinum (Mycobacterium marinum) [µM] | MICs (μg/mL) against Mycobacterium tuberculosis H37Ra ([1]; rifampin as positive control) [µg/mL] | other results
NNC(=O)c1ccncc1 [isoniazid, reference compound] | 88.5 (≈ 12.1 µg/mL) | – | –
CC(C)[C@H]1NC(=O)[C@H](Cc2ccccc2)NC(=O)[C@@H](C(C)C)NC(=O)[C@@H](C)NC(=O)[C@H](CO)NC(=O)[C@@H](Cc2c[nH]c3ccccc23)NC(=O)[C@@H](CO)NC1=O [Compound 1, asperversiamide A] (cyclo([dV][dS][dW]S[dA][dV]F)) | 23.4 (≈ 18.2 µg/mL) | > 100 | –
[H]/N=C(/N)N[C@H]1[C@H](O)[C@@H](O)[C@H](O[C@@H]2O[C@@H](C)[C@](O)(C=O)[C@H]2O[C@@H]2O[C@@H](CO)[C@H](O)[C@@H](O)[C@@H]2NC)[C@@H](N/C(N)=N\[H])[C@@H]1O [streptomycin, reference compound] | 20.1 (≈ 11.7 µg/mL) | – | –
CO[C@H]1/C=C/O[C@@]2(C)Oc3c(C)c(O)c4c(O)c(c(/C=N/N5CCN(C)CC5)c(O)c4c3C2=O)NC(=O)/C(C)=C\C=C\[C@H](C)[C@H](O)[C@@H](C)[C@@H](O)[C@@H](C)[C@H](OC(C)=O)[C@@H]1C [rifampin, reference compound] | 19.0 (≈ 15.6 µg/mL) | – | MIC ([1]; Mycobacterium tuberculosis, rifampin as positive control, read-out: MICs (μg/mL) against Mycobacterium tuberculosis H37Ra): 0.0156 µg/mL (≈ 0.019 µM)
CC(C)[C@H]1NC(=O)[C@H](Cc2ccccc2)NC(=O)[C@@H](C(C)C)NC(=O)[C@@H](C)NC(=O)[C@H](CO)NC(=O)[C@H]2C[C@]3(O)c4ccccc4N[C@@H]3N2C(=O)[C@@H](CO)NC1=O [Compound 8, asperpyrroindotide A] (cyclo([X1]S[dA][dV]F[dV][dS])) | – | > 100 | inhibitory activity against M. tuberculosis H37Ra at a single concentration [1]: None of them showed obvious inhibitory activity
CC(C)[C@H]1NC(=O)[C@H](Cc2ccccc2)NC(=O)[C@@H](C(C)C)NC(=O)[C@@H](C)NC(=O)[C@H](C)NC(=O)[C@H]2C[C@]3(O)c4ccccc4N[C@@H]3N2C(=O)[C@@H](CO)NC1=O [Compound 9] (cyclo([X1]A[dA][dV]F[dV][dS])) | – | > 100 | inhibitory activity against M. tuberculosis H37Ra at a single concentration [1]: None of them showed obvious inhibitory activity
asperversiamide B [Compound 2] | 81.2 | – | MICs (μmol/L) against Mycobacterium tuberculosis H37Ra [2]: 100 ^b μmol/L
asperversiamide C [Compound 3] | 87.5 | – | –
